Reference: patent US7632952B2, “Benzothiazoles and the use thereof as medicaments” (Aventis Pharma S.A., priority 2004, dated 2009)
Counter-ions that a name gives are not always drawn.

How the values were obtained:
Aurora 2 = molecular target: T1, Aurora 2 (Homo sapiens, UniProt O14965); experiment: Aurora 2 kinase radioactivity scintillation test; format: biochemical
T1 construct: A complete recombinant Aurora 2 enzyme, the N-terminal end of which was labeled with histidine; His tag (N); made in house; host or cells: E. coli
T1 sequence (O14965 1-403): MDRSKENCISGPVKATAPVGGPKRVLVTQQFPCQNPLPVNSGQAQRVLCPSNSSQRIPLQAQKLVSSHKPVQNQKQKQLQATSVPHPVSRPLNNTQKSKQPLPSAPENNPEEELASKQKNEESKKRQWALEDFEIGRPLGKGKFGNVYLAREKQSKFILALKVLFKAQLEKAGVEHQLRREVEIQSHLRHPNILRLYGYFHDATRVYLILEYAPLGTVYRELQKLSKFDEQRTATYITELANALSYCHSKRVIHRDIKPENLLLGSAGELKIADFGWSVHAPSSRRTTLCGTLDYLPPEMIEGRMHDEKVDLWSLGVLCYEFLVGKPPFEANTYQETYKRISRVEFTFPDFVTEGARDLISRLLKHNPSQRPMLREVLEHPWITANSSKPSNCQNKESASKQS
Method: The inhibitory effect of the compounds toward the kinase Aurora 2 is determined via a radioactivity scintillation test.
A complete recombinant Aurora 2 enzyme, the N-terminal end of which was labeled with histidine, was expressed in E. coli and purified to a quality close to homogeneity.
The C-terminal fragment (Q1687-H2101) of an NuMA (nuclear protein which is associated with the Mitotic Apparatus) expressed in E. coli, and the N-terminal end of which was labeled with histidine, was purified by chromatography with nickel chelate and used as substrate in the Aurora 2 kinase test.
The kinase activity of Aurora 2 is measured by scintillation on a microplate saturated with nickel chelate (New England Nuclear, SMP107 model). Each well contains 100 μl of the following solution: 0.02 μM of Aurora 2; 0.5 μM of NuMA substrate; 1 μM of ATP supplemented with 0.5 μCi of ATP-[^33P]. The solutions are incubated for 45 minutes at 37° C. The test buffer is then removed and the wells are rinsed twice with 300 μl of kinase buffer. The radioactivity is measured in each well using a Packard Model Top Count NXT machine.
The background noise is measured in duplicate in wells containing the radioactive ATP alone containing buffered kinase treated in the same manner as for the other samples.
The activity of the control is determined by measuring in duplicate the radioactivity in the complete test mixture (ATP, Aurora 2 and NuMA substrate), in the absence of test compound.
The inhibition of the activity of Aurora 2 with a compound of the invention is expressed as a percentage of inhibition of the control activity in the absence of test compound. Staurosporin is added to each plate as inhibition control.

CDK2/cyclin E = CDK2/cyclin E (Homo sapiens, UniProt P24941); experiment: CDK2/cyclin E Flashplate test in 96-well format; format: biochemical; conditions: read-out: CDK2 IC50
Method: 1. Protocol CDK2/cyclin E:
Purification of the CDK2/cyclin E-(His)6 Complex by IMAC (Immobilized Metal Affinity Chromatography):
Two recombinant baculoviruses bearing the human sequences coding, respectively, for CDK2 and cyclin E (the latter comprising a C-terminal hexahistidine tag) are used to coinfect insect Sf21 cells. Two to three days after the start of coinfection, the cells are harvested by centrifugation and then stored at −40° C. until the time of use. After thawing and mechanical lysis of the cells, the complex present in the lysis supernatant is purified by affinity chromatography on nickel (IMAC), and stored at −80° C.
CDK2/cyclin E Flashplate Test in 96-Well Format
A format in 96-well plates coated with streptavidin is used to test the activity of the compounds on the kinase activity of CDK2/cyclin E.
To perform this test, the biotinylated peptide substrate, a fragment of the pRb protein (biotinyl-[…]-OH) is dissolved at a concentration of 1 mM in kinase buffer (HEPES/NaOH 50 mM, NaCl 1 mM, MgCl2 5 mM, pH 7.5) in order to constitute a stock solution stored at −20° C. in the form of 110 μl aliquots. On the day of the experiment, an aliquot of this solution is thawed and diluted in kinase buffer containing 1 mM of dithiothreitol, and added to the buffer extemporaneously, in order to obtain a concentration of 14.3 μM. 70 μl of this solution are added to each well of the Flashplate in order to obtain a final substrate concentration of 10 μM during the enzymatic reaction, performed in a final volume of the reaction medium of 100 μl (cf. below).
Intermediate dilutions of inhibitors (products of the invention) at various concentrations are prepared in DMSO from stock solutions at 10 mM in separate tubes. 1000 μM, 333.3 μM, 111.1 μM, 37.03 μM, 12.35 μM, 4.11 μM and 1.37 μM dilutions are thus prepared. 1 μl of each of these solutions (or 1 μl of DMSO for the controls) is transferred into the wells of the test plate.
Into each well are then added 19 μl of a solution of a mixture of adenosine triphosphate (ATP) and of ATPy^33P in the kinase buffer at a concentration of 5.26 μM of ATP total and 52.6 μCi/ml of ^33P. The enzymatic reaction is triggered by addition of 10 μl per well of a solution of CDK2/cyclin E at 200 nM in the kinase buffer containing 1 mM of dithiothreitol (or 10 μl of kinase buffer containing 1 mM of dithiothreitol for the reaction blanks).
After addition of all the reagents, the plate is incubated at 30° C. with orbital stirring at 650 rpm.
When the incubation is complete, the plate is washed three times with 300 μl per well of PBS (phosphate-buffered saline, pH=7.4, without calcium or magnesium, reference 10010-015, Gibco BRL). The incorporation of ^33P into the peptide is quantified by scintillation counting using a Packard Topcount.NXT machine. The inhibitory activity of the products of the invention is evaluated by measuring the inhibitory concentration that allows a 50% reduction in the enzymatic activity (IC50).

CDK4/cyclin D1 = CDK4/cyclin D1 (Homo sapiens, UniProt P11802); experiment: CDK4/cyclin D1 Flashplate test in 96-well format; format: biochemical
CDK4/cyclin D1, sequence (P11802 whole entry): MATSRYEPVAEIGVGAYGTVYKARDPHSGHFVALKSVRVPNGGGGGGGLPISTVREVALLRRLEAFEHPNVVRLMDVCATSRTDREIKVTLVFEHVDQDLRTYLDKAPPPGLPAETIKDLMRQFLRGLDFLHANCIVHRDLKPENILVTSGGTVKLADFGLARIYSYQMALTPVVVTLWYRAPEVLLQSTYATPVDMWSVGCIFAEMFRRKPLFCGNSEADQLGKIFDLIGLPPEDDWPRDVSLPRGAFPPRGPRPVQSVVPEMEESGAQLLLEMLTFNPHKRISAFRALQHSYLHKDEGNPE
CDK4/cyclin D1, sequence (P24385 whole entry partner): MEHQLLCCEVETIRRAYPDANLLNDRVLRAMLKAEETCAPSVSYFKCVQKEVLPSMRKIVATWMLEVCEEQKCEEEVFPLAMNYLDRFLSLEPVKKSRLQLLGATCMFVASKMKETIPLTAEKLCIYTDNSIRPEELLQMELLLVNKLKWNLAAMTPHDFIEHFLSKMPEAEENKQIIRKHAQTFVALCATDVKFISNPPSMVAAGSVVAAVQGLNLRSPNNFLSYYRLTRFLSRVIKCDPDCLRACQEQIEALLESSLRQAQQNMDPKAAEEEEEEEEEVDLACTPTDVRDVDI
Method: 2. CDK4/cyclin D1 Protocol:
Purification of the CDK4-HA/cyclin D1-(His)6 Complex by IMAC (Immobilized Metal Affinity Chromatography):
Two recombinant baculoviruses bearing the human sequences coding, respectively, for CDK4-HA (C-terminal fusion with the hemaglutinin tag) and for cyclin D1-(His)6 are used to coinfect insect Sf9 cells. Sixty hours after the start of the coinfection, the cells are harvested by centrifugation and then frozen at −20° C. until the time of use.
CDK4/cyclin D1 Flashplate Test in 96-Well Format
A test in 96-well “Flashplate” plates coated with streptavidin is used to evaluate the inhibition of the CDK4/cyclin D1 kinase complex by the products of the invention. To perform this test, the biotinylated peptide substrate, a fragment of the pRb protein (biotinyl-[…]-amide) is dissolved at a concentration of 2 mM in kinase buffer (HEPES/NaOH 50 mM, NaCl 1 mM, MgCl2 5 mM, pH 7.5) in order to constitute a stock solution stored at −20° C. in the form of 110 μl aliquots. On the day of the experiment, an aliquot of this solution is thawed and diluted in kinase buffer containing 1 mM of dithiothreitol, and added to the buffer extemporaneously, in order to obtain a final peptide concentration of 2.571 μM. 70 μl of this solution are added to each well of the Flashplate in order to obtain a final substrate concentration of 1.8 μM during the enzymatic reaction, performed in a final volume of the reaction medium of 100 μl (cf. below). Intermediate dilutions of inhibitors (products of the invention) at various concentrations are prepared in DMSO from stock solutions at 10 mM in separate tubes. 1000 μM, 333.3 μM, 111.1 μM, 37.03 μM, 12.35 μM, 4.11 μM and 1.37 μM dilutions are thus prepared. 1 μl of each of these solutions (or 1 μl of DMSO for the controls) is then transferred into the wells of the test plate. Into each well are then added 19 μl of a solution of a mixture of adenosine triphosphate (ATP) and of ATPy^33P in the kinase buffer at a concentration of 5.26 μM of ATP total and 78.9 μCi/ml of ^33P. The enzymatic reaction is triggered by addition of 10 μl per well of a solution of CDK4/cyclin D1 at 250 nM in the kinase buffer containing 1 mM of dithiothreitol (or 10 μl of kinase buffer containing 1 mM of dithiothreitol for the reaction blanks).
After addition of all the reagents, the test plate is incubated at 30° C. with orbital stirring at 650 rpm. After the incubation, the plate is washed three times with 300 μl per well of PBS (phosphate-buffered saline, pH=7.4, without calcium or magnesium, reference 10010-015, Gibco BRL). The incorporation of ^33P into the substrate peptide is quantified by scintillation counting using a Packard Topcount.NXT machine. The inhibitory activity of the products of the invention is evaluated by measuring the inhibitory concentration that allows a 50% reduction in the enzymatic activity (IC50).

HeLa = HeLa proliferation; format: cell-based; conditions: Homo sapiens, read-out: HeLa proliferation EC50 (nM) DG

| IC50 (Aurora 2) | IC50 (CDK2/cyclin E) | IC50 (CDK4/cyclin D1) | EC50 (HeLa) | SMILES |
| --- | --- | --- | --- | --- |
| 1900 nM | 5000 nM | > 10000 nM |  | CCN(CC)CCC(=O)Nc1nc2ccc(OS(=O)(=O)c3cccs3)cc2s1 [Example 33g, Thiophene-2-sulfonic acid 2-(3-diethyl-aminopropionylamino)benzothiazol-6-yl ester; compound with trifluoroacetic acid] |
| 436 nM | 3240 nM | > 10000 nM |  | O=C(CCC1CCNCC1)Nc1nc2ccc(OS(=O)(=O)c3cccs3)cc2s1 [Example 33a, Thiophene-2-sulfonic acid 2-(3-piperid-4-ylpropionylamino)benzothiazol-6-yl ester; compound with trifluoroacetic acid] |
|  | 75 nM | 236 nM | 296 nM | CC(C)N(CCNc1ccc(S(=O)(=O)Oc2ccc3nc(NC(=O)CCc4cccnc4)sc3c2)cc1)C(C)C [Example 62, 4-(2-diisopropylaminoethylamino)benzenesulfonic acid 2-(3-pyrid-3-ylpropionylamino)benzothiazol-6-yl ester hydrochloride] |
|  | 299 nM | 914 nM | 1130 nM | CC(C)NCCNc1ccc(S(=O)(=O)Oc2ccc3nc(NC(=O)C4CCCC4)sc3c2)cc1 [Example 69, 4-(2-isopropylaminoethylamino)benzenesulfonic acid 2-(cyclopentanecarbonylamino)benzothiazol-6-yl ester] |
|  | 266 nM | 399 nM | 1330 nM | CC(C)CNc1ccc(S(=O)(=O)Oc2ccc3nc(NC(=O)CC4CCNCC4)sc3c2)cc1 [Example 28, 4-isobutylaminobenzenesulfonic acid 2-(2-piperid-4-ylacetylamino)benzothiazol-6-yl ester hydrochloride] |
|  | 175 nM | 424 nM | 2170 nM | CCC(=O)Nc1nc2ccc(OS(=O)(=O)c3ccc(NCCNC(C)C)cc3)cc2s1 [Example 71, 4-(2-isopropylaminoethylamino)benzenesulfonic acid 2-propionylaminobenzothiazol-6-yl ester; compound with trifluoroacetic] |
